# Data as given in ChEMBL document CHEMBL5537135, “Novel antimicrobial peptides modified with fluorinated sulfono-γ-AA having high stability and targeting multidrug-resistant bacteria infections” (Eur J Med Chem, 2024).
# Calls of active or inactive are those of the source. The rule behind the calls is not given here. Numbered stars: 1 amine (or outer) side, 2 acyl side, 3 side chain; on linkers, the order of the positions; unused ones are H or OH. Square brackets hold non-standard residues; d marks the D form. Peptide text beside a SMILES is read from it. * marks the point of attachment. X3 = CC(C)C[C@@H](CN(CC(N)=O)S(=O)(=O)c1ccc(C(F)(F)F)cc1)N*; X2 = CC(C)C[C@H](N)CN(CC(=O)[*:2])[*:1]; X1 = O=S(=O)(c1ccc(C(F)(F)F)cc1)*
# Experiments:
# Staphylococcus aureus [1] = experiment: Synergistic antibacterial activity against Staphylococcus aureus ATCC 33591 assessed as fractional inhibitory concentration index in presence of polymyxin B by checkerboard assay; assay type: functional
# Pseudomonas aeruginosa [2] = experiment: Synergistic antibacterial activity against multidrug-resistant Pseudomonas aeruginosa 124 assessed as fractional inhibitory concentration index in presence of polymyxin B by checkerboard assay; assay type: functional
# Pseudomonas aeruginosa [3] = experiment: Synergistic antibacterial activity against multidrug-resistant Pseudomonas aeruginosa 124 assessed as fractional inhibitory concentration index in presence of ceftazidime by checkerboard assay; assay type: functional
# Cell membrane [4] = experiment: Induction of cytoplasmic membrane depolarization in methicillin-resistant Staphylococcus aureus ATCC 33591 assessed as increase in fluorescence intensity at 2 times MIC by DiSC35 dye-based fluorescence assay
# Pseudomonas aeruginosa [5] = experiment: Antibacterial activity against Pseudomonas aeruginosa ATCC 27853 infected in C57BL/6 mouse pneumonia model assessed as decrease in IL-1beta level in lung at 2.5 to 10 mg/kg, ip administered for 1 to 48 hrs and measured after 3 days; assay type: functional, organism-based; settings: dose 2.5-10 mg/kg, time 1-120 hrs
# [6] = Toxicity in mouse assessed as skin injury at 40 mg/kg, sc measured for 5 to 1440 mins by H and E staining analysis; assay type: organism-based; settings: in vivo, time 5-1440 min
# Cell membrane [7] = experiment: Induction of membrane disruption in Pseudomonas aeruginosa ATCC 27853 assessed as membrane lysis at 2 to 4 times MIC incubated for 24 hrs by SEM analysis; assay type: cell membranes
# Staphylococcus aureus [8] = experiment: Antibacterial activity against methicillin-resistant Staphylococcus aureus ATCC 33591 infected in full-thickness wound BALB/c mouse model at 0.25 to 1 mg/kg, ip administered for 1 to 48 hrs and measured after 3 days; assay type: functional, organism-based; settings: dose 0.25-1 mg/kg, time 1-120 hrs
# Pseudomonas aeruginosa [9] = experiment: Antibacterial activity against Pseudomonas aeruginosa ATCC 27853 infected in C57BL/6 mouse pneumonia model assessed as decrease in TNF-alpha level in lung at 2.5 to 10 mg/kg, ip administered for 1 to 48 hrs and measured after 3 days; assay type: functional, organism-based; settings: dose 2.5-10 mg/kg, time 1-120 hrs
# Staphylococcus aureus [10] = experiment: Synergistic antibacterial activity against methicillin-resistant Staphylococcus aureus S5 assessed as fractional inhibitory concentration index in presence of vancomycin by checkerboard assay; assay type: functional
# Staphylococcus aureus [11] = experiment: Antibacterial activity against methicillin-resistant Staphylococcus aureus ATCC 33591 infected in full-thickness wound BALB/c mouse model assessed as reduction in inflammatory infiltration at 1 mg/kg, ip administered for 1 to 48 hrs and measured after 3 days; assay type: functional, organism-based; settings: time 1-120 hrs
# Pseudomonas aeruginosa [12] = experiment: Additive antibacterial activity against multidrug-resistant Pseudomonas aeruginosa 124 assessed as fractional inhibitory concentration index in presence of ceftazidime by checkerboard assay; assay type: functional
# Staphylococcus aureus [13] = experiment: Antibacterial activity against […] Staphylococcus aureus ATCC 33591; assay type: functional, organism-based
# [14] = Toxicity in mouse at 40 mg/kg, sc measured for 5 to 1440 mins; assay type: organism-based; settings: in vivo, time 5-1440 min
# Pseudomonas aeruginosa [15] = experiment: Antibacterial activity against Pseudomonas aeruginosa ATCC 27853 infected in C57BL/6 mouse pneumonia model assessed as […] at 2.5 to 10 mg/kg, ip administered for 1 to 48 hrs and measured after 3 days by H and E staining based analysis; assay type: functional, organism-based; settings: dose 2.5-10 mg/kg, time 1-120 hrs
# Staphylococcus aureus [16] = experiment: Antibacterial activity against methicillin-resistant Staphylococcus aureus ATCC 33591 infected in full-thickness wound BALB/c mouse model assessed as reduction in TNF-alpha level in skin at 0.25 to 1 mg/kg, ip administered for 1 to 48 hrs and measured after 3 days; assay type: functional, organism-based; settings: dose 0.25-1 mg/kg, time 1-120 hrs
# Staphylococcus aureus [17] = experiment: Additive antibacterial activity against Staphylococcus aureus ATCC 33591 assessed as fractional inhibitory concentration index in presence of polymyxin B by checkerboard assay; assay type: functional
# Cell membrane [18] = experiment: Induction of membrane disruption in Pseudomonas aeruginosa ATCC 27853 assessed as membrane shrinkage at 2 to 4 times MIC incubated for 24 hrs by SEM analysis; assay type: cell membranes
# Staphylococcus aureus [19] = experiment: Antibacterial activity against methicillin-resistant Staphylococcus aureus ATCC 33591 infected in full-thickness wound BALB/c mouse model assessed as log reduction in bacterial load at 0.25 mg/kg, ip administered for 1 to 48 hrs and measured after 3 days by SEM analysis; assay type: functional; settings: time 1-120 hrs
# Cell membrane [20] = experiment: Induction of membrane disruption in Staphylococcus aureus ATCC 33591 assessed as membrane lysis at 2 to 4 times MIC incubated for 24 hrs by SEM analysis; assay type: cell membranes
# Pseudomonas aeruginosa [21] = experiment: Antibacterial activity against Pseudomonas aeruginosa ATCC 27853 infected in C57BL/6 mouse pneumonia model assessed as reduction in bacterial load in lung at 10 mg/kg, ip administered for 1 to 48 hrs and measured after 3 days; assay type: functional, organism-based; settings: time 1-120 hrs
smiles,measurement,setting,value
CC(C)C[C@@H](CN(CC(N)=O)S(=O)(=O)c1ccc(C(F)(F)F)cc1)NC(=O)[C@H](CCCCN)NC(=O)[C@H](CCCCN)NC(=O)[C@H](CC(C)C)NC(=O)[C@H](CC(C)C)NC(=O)[C@H](CCCCN)NC(=O)[C@H](CC(C)C)NC(=O)[C@@H](N)Cc1ccccc1 (H-FLKLLKK-X3),fractional inhibitory concentration index (FICI),Staphylococcus aureus [1],0.5
same,fractional inhibitory concentration index (FICI),Pseudomonas aeruginosa [2],0.75
same,fractional inhibitory concentration index (FICI),Pseudomonas aeruginosa [3],0.75
same,Activity,Cell membrane [4],Active
CC(C)C[C@H](N)CN(CC(=O)N[C@@H](CCCCN)C(=O)N[C@@H](CC(C)C)C(=O)N[C@@H](CC(C)C)C(=O)N[C@@H](CCCCN)C(=O)N[C@@H](CCCCN)C(=O)N[C@@H](CC(C)C)C(=O)N[C@@H](CC(C)C)C(N)=O)S(=O)(=O)c1ccc(C(F)(F)F)cc1 (X1-[X2]KLLKKLL-NH2),Activity,Pseudomonas aeruginosa [5],Active
same,Activity,[6],Non-Toxic
same,Activity,Cell membrane [7],Active
same,Activity,Staphylococcus aureus [8],Active
same,Activity,Pseudomonas aeruginosa [9],Active
same,fractional inhibitory concentration index (FICI),Staphylococcus aureus [10],2
same,Activity,Staphylococcus aureus [11],Active
same,fractional inhibitory concentration index (FICI),Pseudomonas aeruginosa [12],1
same,Activity,Staphylococcus aureus [13],Active
same,Activity,[14],Non-Toxic
same,Activity,Pseudomonas aeruginosa [15],Active
same,Activity,Staphylococcus aureus [16],Active
same,fractional inhibitory concentration index (FICI),Staphylococcus aureus [17],1
same,Activity,Cell membrane [18],Active
same,log(activity),Staphylococcus aureus [19],0.82
same,Activity,Cell membrane [20],Active
same,Activity,Pseudomonas aeruginosa [21],Active
